Measurements taken from patent US20190086390A1, “INDIRECT ASSESSMENT OF INSULIN RELEASE IN A CELL” (Board of Supervisors of Louisiana State University and …, priority 2016, published 2019).
Entries after “also recorded” stand apart in the source; their conditions may differ.

Tests used:
[1] = tested on: 832/13 cells; test: Oxygen consumption rate (Seahorse XF24); format: cell-based, rat; conditions: 1 ng/ml IL-1β + 1 mM I-NMMA, 18 h
Method: Oxygen consumption rates (OCR) were measured using the XF^24 Extracellular Flux Analyzer (Seahorse Bioscience, Chicopee, Mass.). 832/13 cells were grown on cell culture plates for 2 days prior to OCR assays being run. Cells were treated with vehicle, 1 ng/ml IL-β, 1 mM I-NMMA, or both IL-1β (1 ng/ml) plus I-NMMA (1 mM) for 18 h prior to OCR being measured. The oxygen consumption rate was measured over a 2-h period. Data represent the calculated average area under the curve from six wells per treatment group over multiple independent experiments.

[2] = tested on: 832/13 cells; test: MTS dye reduction assay; format: cell-based, rat; conditions: 1 ng/ml IL-1β + 1 mM I-NMMA, 18 h
Method: (§1) Nitrite in the cell culture media was measured as an index of NO production using the Griess assay kit (Promega, Madison, Wis.), whereas cellular reduction of the 3-(4,5-dimethylthiazol-2-yl)-5-(3-carboxymethoxyphenyl)-2-(4-sulfophe-nyl)-2H-tetrazohum, inner salt (MTS) dye was determined using the MTS 1 solution kit (Promega) according to the manufacturer's protocol.

[3] = tested on: 832/13 cells; test: Glucose-stimulated insulin secretion (GSIS) in 832/13 cells, insulin ELISA; format: cell-based, rat
Method: 832/13 cells were grown in 12-well plates and treated as indicated. Glucose-stimulated insulin secretion (GSIS) assays were performed as described previously (29). Insulin secretion by cell lines into the media was measured using either the High Range Rat Insulin ELISA kit (Mercodia, Uppsala, Sweden) or by rat islets using the insulin radioimmunoassay (Siemens, Malvern, Pa.) according to the company directions. In addition, cells were lysed using M-PER lysis reagent (Thermo Fisher Scientific) to quantify total intracellular protein content via BCA assay (Thermo Fisher Scientific). Insulin secretion data were normalized to total protein to account for any differences in cell number between treatment groups. Incorporation of tritiated thymidine into DNA as a cellular index of proliferation was carried out as described (45).

[4] = tested on: 832/13 cells; test: Live cell calcium imaging, glucose-induced calcium response (Calcium Green); format: cell-based, rat
Method: 832/13 cells were plated into six-well plates containing poly-d-lysine-coated coverslips (Neuvitro, Vancouver, Wash.). At 50% confluence, cells were treated for 18 h with one of four experimental groups: 1 ng/ml […] alone, 1 mM I-NMMA alone, IL-1β+ I-NMMA, or normal growth media. Immediately prior to imaging, cells were preloaded with Calcium Green 1 AM (CG, C3012; Life Technologies) by transferring coverslips to a solution of 10|×M CG in 20% Pluronic F127 in DMSO (Life Technologies) made up in carbogenated (95% 02-5% C02) normal Krebs. The recipe for normal Krebs solution was (in mM) 124 NaCl, 25 NaHC03, 2 glucose, 3 KC1, 2 CaCl2, 1.5 NaH2P04, and 1 MgS04-7H20, which corrected to pH 7.4 with HCl. After incubation in the CG solution for 30 min, coverslips were transferred to carbogenated normal Krebs at 29° C.
Coverslips were transferred to a recording chamber on a fixed stage Zeiss Axioskop2 microscope equipped with a Perkin Elmer Ultra-view/Yokogawa C10 spinning disk laser confocal illuminator. Cells were illuminated with the 488 nm laser; CG-calcium fluorescence signals were collected at 509 nm. Cells were visualized with a X40 water immersion objective. Images were collected with a Hammamatsu Ocra-ER charge-coupled device camera. The confocal system, including image collection, was controlled by Perkin-Elmer Improvision software.
Cells on coverslips were constantly perfused with normal Krebs solution at 29° C. at a rate of 3 ml/min. After 10 min, the perfusion solution was switched to one containing 12 mM glucose and proportionally less sodium chloride to maintain osmolality. The 12 mM glucose challenge was applied for 5 min, followed by a 5 min washout period. Images of CG-labeled cells were collected continuously during the challenge period at a rate of 20/min, with each frame taking 1 s. Images were collected as TIFF stacks and processed using Nikon Elements AR software. Individual cells in the field were designated as regions of interest (ROI), and their fluorescence signal over time was captured. Background fluorescence was subtracted from the fluorescence signal of individual ROIs. The relative changes in cytoplasmic calcium in the cells were expressed as changes in fluorescence [(AF/F) %], where F is the intensity of the baseline fluorescence signal before stimulation and AF is the difference between the peak fluorescence intensity and the baseline signal. Therefore, magnitude of response was normalized for each individual ROI.

[5] = tested on: 832/13 cells; test: Nitric oxide by EPR spectroscopy with (MGD)2Fe2+ spin trap; format: cell-based, rat; conditions: 1 ng/ml IL-1β 18 h
Method: The spin trap Af-methyl-d-glucamine dithiocarbamate-iron complex [(MGD)2-Fe^2+] was prepared fresh in each experiment by making stock solutions of 500 mM MGD and 100 mM Fe^2+ (from FeS04.7 H20) in ultrapure water under anaerobic conditions. A final concentration of 25 mM MGD and 5 mM Fe^2+ was introduced onto cells in culture using serum-free media with a 30-min incubation period. Supernatants were then collected for the measurements of the (MGD)2-iron-NO complex. All electron paramagnetic resonance (EPR) measurements were carried out in a quartz flat cell at room temperature. Samples were transferred directly into the flat cell, which was then placed into the cavity of a Bruker EMX Plus spectroscope. Typical instrumental conditions were as follows: 20 mW of microwave power, 5.0-G modulation amplitude, 1×10^5 gain, 0.163-s time constant, and 80-G scan range. Quantitation was carried out by measuring and comparing the first peak heights on the spectra.

[6] = tested on: 832/13 cells; test: Nitrite accumulation in culture media, Griess assay; format: cell-based, rat; conditions: 832/13 cells, 1 ng/ml IL-1β 18 h
Method: as §1

[7] = tested on: CCL20; test: CCL20 secretion into media of 832/13 cells, ELISA; format: cell-based, rat; conditions: 1 ng/ml IL-1β + 1 mM I-NMMA, 6 h
Method: (§2) 832/13 cells were grown in 12-well plates and treated as indicated. RPMI was supplemented with 0.3% BSA, and media were collected at the indicated time points. In addition, the cells were lysed using M-PER lysis reagent (Thermo Fisher Scientific) to quantify total intracellular protein content. CCL2 and CCL20 secretion into the media was measured by CCL2 Quantikine ELISA kit (R & D Systems, Minneapolis, Minn.) and CCL20 DuoSet ELISA kit (R & D Systems) according to the manufacturer's protocol. ELISA data were normalized to total protein to account for any differences in cell number between treatment groups.

[8] = tested on: CCL2; test: CCL2 secretion into media of 832/13 cells, ELISA; format: cell-based, rat; conditions: 1 ng/ml IL-1β + 1 mM I-NMMA, 6 h
Method: as §2

[9] = tested on: islets isolated from ZDF rats; conditions: islets from ZDF rats and clonal cells cultured in lipids; cited from earlier work
[10] = pretreated 18 h with I-NMMA plus IL-1β, 12 mM glucose

Row | SMILES | IL-1β-induced decrease in oxygen consumption rate with NOS inhibitor [1] | IL-1β-induced decrease in MTS reduction with NOS inhibitor [2] | recovery of insulin secretion ([3]; IL-1β 1 ng/ml + I-NMMA 1 mM, 18 h) | IL-1β-reduced change in intracellular calcium with NOS inhibitor ([4]; 1 mM I-NMMA) | magnitude of the response [4, 10] | number of responsive cells [4, 10] | responders and response magnitude relative to control pretreatment ([4]; pretreated with I-NMMA alone) | IL-1β-induced nitric oxide production in presence of inhibitor [5] | IL-1β-induced nitrite production in presence of inhibitor [6] | IL-1β-induced CCL20 secretion with NOS inhibitor [7] | IL-1β-induced synthesis and secretion of CCL2 with NOS inhibitor [8] | recovery of insulin secretion ([3]; IL-1β 18 h, 10 uM DMM during final 2 h) | insulin secretion [9]
1 | CNC(=N)NCCC[C@H](N)C(=O)O [I-NMMA, N^G-monomethyl-L-arginine, reference compound] | prevented | fully recovered | almost complete recovery | completely prevented | 30% | 89% | differed neither in the number of responders nor in the magnitude of the responses | lack of IL-Iβ-mediated elevations in nitric oxide formation | completely inhibited | not impacted | not altered | – | –
2 | COC(=O)CC(O)C(=O)OC (stereo not shown) [dimethyl malate, reference compound] | – | – | – | – | – | – | – | – | – | – | – | could be recovered; also recorded: enhanced insulin secretion | improves insulin secretion
